Like-named read-outs stand apart in the source and are kept apart here.
Assays:
[1] = target: T1, human type PPAR α ligand-binding domain fused with yeast transcription factor DNA-binding domain (Homo sapiens, UniProt Q07869); experiment: Test of transactivation on peroxisome proliferator-activated receptor α (GAL4 DNA-binding domain/PPAR ligand-binding domain reporter in CHO cells)
T1 sequence (Q07869 239-466 limits assumed): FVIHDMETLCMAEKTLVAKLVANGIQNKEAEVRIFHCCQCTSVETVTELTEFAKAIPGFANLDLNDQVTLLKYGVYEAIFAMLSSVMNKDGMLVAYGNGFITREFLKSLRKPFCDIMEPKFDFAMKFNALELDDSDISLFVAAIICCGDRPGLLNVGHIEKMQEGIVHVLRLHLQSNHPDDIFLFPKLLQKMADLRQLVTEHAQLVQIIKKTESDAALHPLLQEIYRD
Protocol: (§1) Test of Transactivation on Peroxisome Proliferator-activated Receptors α and γ
(§2) After 24 hours, CAT activity and β-galactosidase activity were measured.

[2] = target: T2, human type PPAR γ ligand-binding domain fused with yeast transcription factor DNA-binding domain (Homo sapiens, UniProt P37231); experiment: Test of transactivation on peroxisome proliferator-activated receptor γ (GAL4 DNA-binding domain/PPAR ligand-binding domain reporter in CHO cells)
T2 sequence (P37231 238-503 limits assumed): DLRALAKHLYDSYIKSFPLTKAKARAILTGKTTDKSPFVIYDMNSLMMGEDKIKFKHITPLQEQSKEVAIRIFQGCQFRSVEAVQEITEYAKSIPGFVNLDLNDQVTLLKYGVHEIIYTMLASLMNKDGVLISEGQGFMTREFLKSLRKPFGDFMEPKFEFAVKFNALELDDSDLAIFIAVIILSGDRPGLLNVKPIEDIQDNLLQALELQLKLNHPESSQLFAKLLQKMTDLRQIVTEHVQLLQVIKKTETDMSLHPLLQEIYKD
Protocol: as §1, §2

melting point [°C] | EC50 [1] [nM] | EC50 [2] [nM] | EC50 ([1]; read-out: Transactivation action PPARα EC50, CHO cells, 24 hours, CAT activity with β-galactosidase internal standard) [nM] | SMILES
87 to 89 | – | – | – | COc1ccc(CC2SC(=O)NC2=O)cc1C(=O)NCc1ccc(Oc2ccccc2)cc1 (stereo not drawn) (hydrate or solvate) [Example 3]
– | 240 | 240 | – | COc1ccc(CC2SC(=O)NC2=O)cc1C(=O)NCc1ccc(Oc2ccccc2)cc1 (stereo not drawn) [Example 3]

The next lines start with the compound.

SMILES | melting point [°C] | EC50 [1] [nM] | EC50 [2] [nM] | EC50 ([1]; read-out: Transactivation action PPARα EC50, CHO cells, 24 hours, CAT activity with β-galactosidase internal standard) [nM]
COc1ccc(CC2SC(=O)NC2=O)cc1C(=O)NCc1ccc(-c2ccccc2)cc1 (stereo not drawn) [Example 2, N-[(Biphenyl-4-yl)Methyl]-5-[(2.4-Dioxothiazolidin-5-yl)Methyl]-2-Methloybenzamide] | 170.5 to 172 | 630 | 6800 | –
COc1ccc(CC2SC(=O)NC2=O)cc1C(=O)NCc1ccc(OCc2ccccc2)cc1 (stereo not drawn) [Example 1] | 131 to 132.5 | 440 | – | –
CCCCC/C=C\C/C=C\C=C\[C@@H](O)C/C=C\CCCC(=O)O [(8S)-HETE, reference compound] | – | – | – | 1300

— US6734199B1, “Substituted benzylthiazolidine-2, 4-dione derivatives” (Kyorin Pharmaceutical Co., Ltd., priority 1999, dated 2004)
